Results taken from patent publication US10696622B2, “Synthesis of N-vinyl carboxylic acid amides” (Taminco BVBA, priority 2016, dated 2020).

Assay: Solubility in solvent, CIPAC Method MT 181 at 20° C.
Assay type: physicochemical
Text: When used, the solvent introduced into first reaction zone 20 may be any suitable type of solvent. The solvent may include a single solvent, or it may comprise a mixture of two or more solvents. In some embodiments, the solvent may be selected based on its solubility with one or more of the starting materials in lines 110, 112, and/or 114, and/or with the reaction product produced within first reaction zone 20. For example, at least one of the starting materials introduced into and/or the product withdrawn from first reaction zone 20 may have a solubility of at least about 20, at least about 25, at least about 30, at least about 35, at least about 40, at least about 45, at least about 50, at least about 55 weight percent in the solvent introduced into first reaction zone 20. In addition, or the alternative, at least one of the reagents introduced into and/or the reaction product withdrawn from first reaction zone 20 may have a solubility of not more than about 80, not more than about 75, not more than about 70, not more than about 65 weight percent in the solvent introduced into first reaction zone 20. Solubility is measured at 20° C. using CIPAC Method MT 181, unless otherwise noted.

- solubility of 1-hydroxyethylformamide in formamide (in formamide): about 60 weight percent
- solubility of 1-hydroxyethylformamide in isopropanol (in isopropanol, measured as described above (20° C., CIPAC Method MT 181)): 20.1 weight percent
SMILES: CC(O)NC=O (centres unmarked) [1-hydroxyethylformamide]
